Source: PMC11653243, “Enhancing Phototoxicity in BODIPY‐Perylene Charge Transfer Dyads by Combined Iodination and Mesylation” (Chemistry (Weinheim an Der Bergstrasse, Germany), 2024)
pIC50: −log10 of the molar value.

Columns and labels:
[1] = system: CHO cells; experiment: Dark toxicity, 24 h, alamar blue assay; type: cell-based, Chinese Hamster; conditions: Cricetulus griseus, light or radiation study, without irradiation, 24 h in the dark at 37 °C
Experimental: Typical of many BODIPY derivatives, the BODIPY's presented in this work are insoluble in aqueous media, including PBS, and thus the main stock solutions (2–3 mM) were prepared in 100 % DMSO and diluted in media immediately before treating the cells. The maximum concentration for dark toxicity was set at 50 μM to keep the concentration of DMSO ≤1 % (v/v) to maintain cell health. As a result, it was not possible to determine an exact dark IC50 value as concentrations above 50 μM demanded DMSO concentrations that would affect the viability of the cells. Dietzek‐Ivanšić et al previously reported on the effect of DMSO on MCF‐7 cell viability, where cell viability remained high (95 %) in cells treated with 1 % DMSO in cell culture media for 24 h, whereas only 40 % of cells remained viable after treatment with 3.8 % DMSO. Working stocks in cell culture media remained stable within the incubation times used for cellular studies i. e. up to 24 h.[25]
(§1) Dark‐ and photo‐toxicity studies were performed by seeding CHO and MCF‐7 cells in clear 96‐well plates (Nunc) and treating with varying concentrations of B2P, MB2P, B2PI and MB2PI. Phototoxicity experiments were carried out using a 470 nm LED. For hypoxic phototoxicity studies, hypoxia was mimicked by adding CoCl2 to the cells prior to irradiation. Cell viability was determined using the alamar blue assay and absorbance measured with a BMG LABTECH CLARIOstar plate reader. […]
For 24 h dark toxicity studies, 50, 10, 5 and 1 µM stock concentrations of B2P, B2PI, MB2P and MB2PI were prepared in media to a final DMSO concentration of ≤1%. 100 µL of each concentration was added to the wells in triplicate and the plates incubated for 24 h in the dark at 37°C. Cell viability of all plate-based studies was assessed using the alamar blue assay. A 10% Resazurin-media solution (alamarBlue, Invitrogen) was added to the wells and incubated for 5 h in the absence of light. Absorbance was measured using a BMG LABTECH CLARIOstar plate reader at 570 nm and 600 nm (corrected for background subtraction). Cell viability is presented as a percentage (%) compared to untreated control wells. Plates were performed in triplicate. […]

[2] = system: MCF‐7 cells; experiment: Phototoxicity, 470 nm LED, alamar blue assay; type: cell-based; conditions: for Photo Index (PI), ratio of dark IC50 to light IC50: 17 J/cm^2, 470 nm LED; for pIC50: Homo sapiens, MCF7, light or radiation study, 17 h incubation, 470 nm LED, 17±1.64 J/cm^2 (2.5 mW/cm^2 for 2 h)
Experimental: (§2) The phototoxicity of the BODIPY's were assessed to compare the light induced toxicity of the iodinated compounds with their non‐iodinated counterparts. CHO and MCF‐7 cells were treated with B2P, B2PI, MB2P, and MB2PI in a concentration range from 0.10–1 μM for 17 h, the wells were decanted and filled with 100 μL phenol red free media prior to irradiation with a 470 nm LED (17 J/cm^2). Cell viability was determined using the alamar blue cell viability assay and % viability was calculated relative to untreated control wells.
as §1
(§3) For 24 h dark toxicity studies, 50, 10, 5 and 1 µM stock concentrations of B2P, B2PI, MB2P and MB2PI were prepared in media to a final DMSO concentration of ≤1%. 100 µL of each concentration was added to the wells in triplicate and the plates incubated for 24 h in the dark at 37°C. Cell viability of all plate-based studies was assessed using the alamar blue assay. A 10% Resazurin-media solution (alamarBlue, Invitrogen) was added to the wells and incubated for 5 h in the absence of light. Absorbance was measured using a BMG LABTECH CLARIOstar plate reader at 570 nm and 600 nm (corrected for background subtraction). Cell viability is presented as a percentage (%) compared to untreated control wells. Plates were performed in triplicate.
(§4) Phototoxicity and dark control plates were performed by incubating CHO or MCF-7 cells with B2P, B2PI, MB2P and MB2PI for 17 h to allow uptake, emptying the wells, replacing with phenol red free media, and irradiating at a total dose of 17 ± 1.64 J/cm2 (2 h at 2.37 ± 0.23 mW/cm2) using a 470 nm LED (TeleOpto LEDA-X LED driver and array). Control plates were incubated in the dark during the irradiation period (2 h). After irradiation, the cells were incubated in the dark overnight to allow for cell recovery. Irradiation conditions were tested on untreated cells to confirm cells remained viable at this dose before any experiments were performed and each phototoxicity plate included untreated test wells for cell viability comparison. Viability was determined using the alamar blue assay as per the cytotoxicity

[3] = system: CHO cells; experiment: Phototoxicity, 470 nm LED, alamar blue assay; type: cell-based, Chinese Hamster; conditions: 17 J/cm^2, 470 nm LED
Experimental: as §2, §1, §3, §4

## CC1=C(I)C(C)=[N+]2C1=C(c1ccccc1)c1c(C)c(-c3ccc4c5cccc6cccc(c7cccc3c74)c65)c(C)n1[B-]2(F)F [B2PI]
[1]
  pIC50: < 4.30
[2]
  Photo Index (PI), ratio of dark IC50 to light IC50: > 213
[3]
  Photo Index (PI), ratio of dark IC50 to light IC50: > 87

## CC1=CC(C)=[N+]2C1=C(c1ccccc1)c1c(C)c(-c3ccc4c5cccc6cccc(c7cccc3c74)c65)c(C)n1[B-]2(F)F [B2P]
[1]
  pIC50: < 4.30
[2]
  Photo Index (PI), ratio of dark IC50 to light IC50: > 182
  pIC50: 6.56
[3]
  Photo Index (PI), ratio of dark IC50 to light IC50: > 76

## CC1=C(c2ccc3c4cccc5cccc(c6cccc2c63)c54)C(C)=[N+]2C1=C(c1c(C)cc(C)cc1C)c1c(C)c(I)c(C)n1[B-]2(F)F [MB2PI]
[1]
  pIC50: < 4.30
[2]
  Photo Index (PI), ratio of dark IC50 to light IC50: > 218
  pIC50: 6.64
[3]
  Photo Index (PI), ratio of dark IC50 to light IC50: > 132

## CC1=C(c2ccc3c4cccc5cccc(c6cccc2c63)c54)C(C)=[N+]2C1=C(c1c(C)cc(C)cc1C)c1c(C)cc(C)n1[B-]2(F)F [MB2P]
[1]
  pIC50: < 4.30
[2]
  Photo Index (PI), ratio of dark IC50 to light IC50: > 109
  pIC50: 6.34
[3]
  Photo Index (PI), ratio of dark IC50 to light IC50: > 64
